Laboratory results from ChEMBL document CHEMBL1817621, “SAR studies of acidic dual γ-secretase/PPARγ modulators” (Bioorg Med Chem, 2011).
Active and inactive are the calls of the source. The rule behind the calls is not given here.

system: CHO; experiment: Cytotoxicity against CHO cells expressing human APP and wild type human presenilin-1 assessed as reduction of cell viability up to 40 uM after 24 hrs by Alamar blue assay; assay type: cell-based, Cricetulus griseus; conditions: chinese hamster

Structure (SMILES) | Activity
CCCC/C(=C\c1cc(OCCc2ccccc2)ccc1OCCc1ccccc1)C(=O)O | Non-toxic
CCCCC(Cc1ccc(OCCc2ccccc2)c(OCCC2CCCCC2)c1)C(=O)O (configuration not stated) | Non-toxic
CCCCC(Cc1ccc(OCCC2CCCCC2)c(OCCC2CCCCC2)c1)C(=O)O (configuration not stated) | Non-toxic

system: not listed separately; experiment: Modulation of gamma-secretase expressed in CHO cells co-expressing human APP and wild type human presenilin-1 assessed as increase of amyloid beta38 production by ELISA; assay type: cell-based; conditions: not given

EC50 [µM] | Structure (SMILES)
6.7 | CCCC/C(=C\c1cc(OCCc2ccccc2)ccc1OCCc1ccccc1)C(=O)O
> 40 | CCCCC(Cc1ccc(OCCc2ccccc2)c(OCCC2CCCCC2)c1)C(=O)O (configuration not stated)
> 40 | CCCCC(Cc1ccc(OCCC2CCCCC2)c(OCCC2CCCCC2)c1)C(=O)O (configuration not stated)

molecular target: T1, Peroxisome proliferator-activated receptor alpha (Homo sapiens) (UniProt Q07869); experiment: Modulation of human PPARalpha-LBD expressed in african green monkey COS7 cells co-transfected with Gal4 assessed as activation of transactivation activity at 10 uM by luciferase assay; assay type: cell-based; conditions: COS-7
T1 sequence (whole entry): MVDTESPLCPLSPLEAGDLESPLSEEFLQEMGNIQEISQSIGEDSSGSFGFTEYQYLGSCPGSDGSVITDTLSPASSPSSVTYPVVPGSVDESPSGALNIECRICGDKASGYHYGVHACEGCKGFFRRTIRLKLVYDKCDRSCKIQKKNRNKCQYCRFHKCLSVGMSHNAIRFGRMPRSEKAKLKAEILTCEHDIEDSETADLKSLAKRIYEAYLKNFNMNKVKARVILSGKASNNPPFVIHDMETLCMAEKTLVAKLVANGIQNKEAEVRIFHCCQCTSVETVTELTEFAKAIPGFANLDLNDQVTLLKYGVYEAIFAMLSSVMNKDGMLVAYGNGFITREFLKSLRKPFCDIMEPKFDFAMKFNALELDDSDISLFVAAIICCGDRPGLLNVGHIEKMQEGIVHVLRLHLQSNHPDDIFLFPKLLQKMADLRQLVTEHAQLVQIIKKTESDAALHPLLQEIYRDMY

Activity | Structure (SMILES)
inactive | CCCC/C(=C\c1cc(OCCc2ccccc2)ccc1OCCc1ccccc1)C(=O)O
inactive | CCCCC(Cc1ccc(OCCc2ccccc2)c(OCCC2CCCCC2)c1)C(=O)O (configuration not stated)
inactive | CCCCC(Cc1ccc(OCCC2CCCCC2)c(OCCC2CCCCC2)c1)C(=O)O (configuration not stated)

molecular target: T2, Prostaglandin G/H synthase 1 (Ovis aries) (UniProt P05979); experiment: Inhibition of ovine COX-1 assessed as residual activity by measuring formation of 12-HHT from arachidonic acid at 10 uM by HPLC analysis; conditions: not given
T2 sequence (whole entry): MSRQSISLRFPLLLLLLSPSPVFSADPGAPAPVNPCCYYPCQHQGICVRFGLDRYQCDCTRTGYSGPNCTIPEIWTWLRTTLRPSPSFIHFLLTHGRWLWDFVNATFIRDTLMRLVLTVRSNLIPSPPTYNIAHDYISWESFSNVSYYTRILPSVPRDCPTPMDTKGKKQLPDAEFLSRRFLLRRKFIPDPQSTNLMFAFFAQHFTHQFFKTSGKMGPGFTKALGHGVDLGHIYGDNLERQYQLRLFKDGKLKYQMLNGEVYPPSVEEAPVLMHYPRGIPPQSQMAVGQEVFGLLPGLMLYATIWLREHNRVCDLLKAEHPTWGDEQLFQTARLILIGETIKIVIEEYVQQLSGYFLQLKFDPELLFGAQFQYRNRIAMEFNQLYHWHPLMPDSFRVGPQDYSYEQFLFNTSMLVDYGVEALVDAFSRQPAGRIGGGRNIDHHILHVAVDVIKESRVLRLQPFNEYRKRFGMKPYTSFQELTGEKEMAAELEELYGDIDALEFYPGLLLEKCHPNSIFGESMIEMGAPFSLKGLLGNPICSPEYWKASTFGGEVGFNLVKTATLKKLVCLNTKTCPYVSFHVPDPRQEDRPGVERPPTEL

Activity [%] | Structure (SMILES)
68 | CCCC/C(=C\c1cc(OCCc2ccccc2)ccc1OCCc1ccccc1)C(=O)O
82 | CCCCC(Cc1ccc(OCCc2ccccc2)c(OCCC2CCCCC2)c1)C(=O)O (configuration not stated)
73.8 | CCCCC(Cc1ccc(OCCC2CCCCC2)c(OCCC2CCCCC2)c1)C(=O)O (configuration not stated)

molecular target: T3, Peroxisome proliferator-activated receptor gamma (Homo sapiens, UniProt P37231); experiment: Modulation of human PPARgamma-LBD expressed in african green monkey COS7 cells co-transfected with Gal4 assessed as activation of transactivation activity by luciferase assay; assay type: cell-based, COS-7; conditions: not given
T3 sequence (P37231 whole entry): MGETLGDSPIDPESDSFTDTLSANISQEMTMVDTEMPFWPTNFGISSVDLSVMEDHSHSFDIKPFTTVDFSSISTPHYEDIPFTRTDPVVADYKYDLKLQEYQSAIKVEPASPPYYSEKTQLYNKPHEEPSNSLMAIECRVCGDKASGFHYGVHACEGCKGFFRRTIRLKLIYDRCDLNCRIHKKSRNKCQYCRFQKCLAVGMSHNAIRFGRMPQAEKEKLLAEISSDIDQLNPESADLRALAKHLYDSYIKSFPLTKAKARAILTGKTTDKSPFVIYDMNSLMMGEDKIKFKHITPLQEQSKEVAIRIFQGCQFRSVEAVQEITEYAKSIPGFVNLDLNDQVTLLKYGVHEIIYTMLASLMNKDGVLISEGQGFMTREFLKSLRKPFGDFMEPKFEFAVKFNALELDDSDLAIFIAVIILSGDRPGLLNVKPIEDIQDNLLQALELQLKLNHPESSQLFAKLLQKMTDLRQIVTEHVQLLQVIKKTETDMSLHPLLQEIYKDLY

EC50 [µM] | Structure (SMILES)
1.8 | CCCC/C(=C\c1cc(OCCc2ccccc2)ccc1OCCc1ccccc1)C(=O)O
1.5 | CCCCC(Cc1ccc(OCCc2ccccc2)c(OCCC2CCCCC2)c1)C(=O)O (configuration not stated)
1.1 | CCCCC(Cc1ccc(OCCC2CCCCC2)c(OCCC2CCCCC2)c1)C(=O)O (configuration not stated)

molecular target: T4, Peroxisome proliferator-activated receptor delta (Homo sapiens) (UniProt Q03181); experiment: Modulation of human PPARdelta-LBD expressed in african green monkey COS7 cells co-transfected with Gal4 assessed as activation of transactivation activity at 10 uM by luciferase assay; assay type: cell-based; conditions: COS-7
T4 sequence (whole entry): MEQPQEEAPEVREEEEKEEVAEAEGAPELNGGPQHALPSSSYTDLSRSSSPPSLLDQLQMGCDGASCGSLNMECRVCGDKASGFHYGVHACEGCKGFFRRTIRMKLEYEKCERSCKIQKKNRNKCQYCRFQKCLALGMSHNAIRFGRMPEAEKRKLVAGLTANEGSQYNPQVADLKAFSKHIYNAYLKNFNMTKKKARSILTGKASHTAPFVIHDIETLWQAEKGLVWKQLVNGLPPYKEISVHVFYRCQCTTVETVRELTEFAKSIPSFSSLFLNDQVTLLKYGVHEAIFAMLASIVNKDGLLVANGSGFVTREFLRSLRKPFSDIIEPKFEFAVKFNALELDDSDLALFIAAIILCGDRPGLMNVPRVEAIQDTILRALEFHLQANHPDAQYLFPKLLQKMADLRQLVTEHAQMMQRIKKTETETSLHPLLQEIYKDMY

Activity | Structure (SMILES)
inactive | CCCC/C(=C\c1cc(OCCc2ccccc2)ccc1OCCc1ccccc1)C(=O)O
inactive | CCCCC(Cc1ccc(OCCc2ccccc2)c(OCCC2CCCCC2)c1)C(=O)O (configuration not stated)
inactive | CCCCC(Cc1ccc(OCCC2CCCCC2)c(OCCC2CCCCC2)c1)C(=O)O (configuration not stated)

system: not listed separately; experiment: Modulation of gamma-secretase expressed in CHO cells co-expressing human APP and wild type human presenilin-1 assessed as inhibition of amyloid beta42 production by ELISA; assay type: cell-based; conditions: not given

IC50 [µM] | Structure (SMILES)
15.4 | CCCC/C(=C\c1cc(OCCc2ccccc2)ccc1OCCc1ccccc1)C(=O)O
> 40 | CCCCC(Cc1ccc(OCCc2ccccc2)c(OCCC2CCCCC2)c1)C(=O)O (configuration not stated)
> 40 | CCCCC(Cc1ccc(OCCC2CCCCC2)c(OCCC2CCCCC2)c1)C(=O)O (configuration not stated)

molecular target: T5, Peroxisome proliferator-activated receptor gamma (Homo sapiens) (UniProt P37231); experiment: Modulation of human PPARgamma-LBD expressed in african green monkey COS7 cells co-transfected with Gal4 assessed as activation of transactivation activity by luciferase assay relative to pioglitazone; assay type: cell-based; conditions: COS-7
T5 sequence (whole entry): T3 sequence (P37231 whole entry)

Emax [%] | Structure (SMILES)
47 | CCCC/C(=C\c1cc(OCCc2ccccc2)ccc1OCCc1ccccc1)C(=O)O
128 | CCCCC(Cc1ccc(OCCc2ccccc2)c(OCCC2CCCCC2)c1)C(=O)O (configuration not stated)
69 | CCCCC(Cc1ccc(OCCC2CCCCC2)c(OCCC2CCCCC2)c1)C(=O)O (configuration not stated)

molecular target: T6, Prostaglandin G/H synthase 2 (Homo sapiens) (UniProt P35354); experiment: Inhibition of human recombinant COX-2 assessed as residual activity by measuring formation of 12-HHT from arachidonic acid at 10 uM by HPLC analysis; conditions: not given
T6 sequence (whole entry): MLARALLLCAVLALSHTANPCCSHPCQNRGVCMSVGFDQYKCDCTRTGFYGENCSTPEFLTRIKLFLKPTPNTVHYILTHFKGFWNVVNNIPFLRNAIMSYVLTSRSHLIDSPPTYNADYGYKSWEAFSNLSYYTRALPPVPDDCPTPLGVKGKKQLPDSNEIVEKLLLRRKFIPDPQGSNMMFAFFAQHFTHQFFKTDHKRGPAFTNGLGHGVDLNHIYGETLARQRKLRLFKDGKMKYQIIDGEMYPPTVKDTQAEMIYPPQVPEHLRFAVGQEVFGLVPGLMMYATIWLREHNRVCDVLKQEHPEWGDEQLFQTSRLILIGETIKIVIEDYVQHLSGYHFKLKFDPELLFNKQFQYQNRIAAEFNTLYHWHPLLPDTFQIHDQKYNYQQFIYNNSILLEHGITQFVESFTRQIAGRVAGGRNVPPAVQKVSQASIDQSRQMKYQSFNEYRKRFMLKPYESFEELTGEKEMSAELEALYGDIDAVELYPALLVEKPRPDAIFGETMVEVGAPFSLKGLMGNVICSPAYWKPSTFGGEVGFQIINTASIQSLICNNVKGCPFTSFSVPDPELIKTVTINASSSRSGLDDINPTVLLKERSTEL

Activity [%] | Structure (SMILES)
94.4 | CCCC/C(=C\c1cc(OCCc2ccccc2)ccc1OCCc1ccccc1)C(=O)O
96.6 | CCCCC(Cc1ccc(OCCc2ccccc2)c(OCCC2CCCCC2)c1)C(=O)O (configuration not stated)
79.1 | CCCCC(Cc1ccc(OCCC2CCCCC2)c(OCCC2CCCCC2)c1)C(=O)O (configuration not stated)
